In US11136329B2, “JAK inhibitors” (Vimalan Biosciences, Inc., priority 2019, dated 2021) one finds IC50 data, which are given here for ten compounds.

Where only a bound is given, the exact number is not on record here.

What all share (type): biochemical
Test [1] deals with JAK1 (Homo sapiens (Human), UniProt P23458). In words: JAK/TYK2 assay (Kinase Glo luminescence), JAK1. The conditions noted are these: 7.5 nM enzyme, 2 uM ATP, 30 uM IRS-1, 1 hr. A digest of the protocol: (§1)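 Kinase activity read as Kinase Glo luminescence (inversely related to activity) after enzyme and substrate reacted with compound at 25° C. for 1-2 hours in 20 mM HEPES, 10 mM MgCl2, 0.01% Tween, 1 mM DTT, pH 7.5. Test compound final concentrations spanned 10000 to 0.51 nM in 3-fold steps.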
Chain of JAK1 (P23458 whole entry, species assumed): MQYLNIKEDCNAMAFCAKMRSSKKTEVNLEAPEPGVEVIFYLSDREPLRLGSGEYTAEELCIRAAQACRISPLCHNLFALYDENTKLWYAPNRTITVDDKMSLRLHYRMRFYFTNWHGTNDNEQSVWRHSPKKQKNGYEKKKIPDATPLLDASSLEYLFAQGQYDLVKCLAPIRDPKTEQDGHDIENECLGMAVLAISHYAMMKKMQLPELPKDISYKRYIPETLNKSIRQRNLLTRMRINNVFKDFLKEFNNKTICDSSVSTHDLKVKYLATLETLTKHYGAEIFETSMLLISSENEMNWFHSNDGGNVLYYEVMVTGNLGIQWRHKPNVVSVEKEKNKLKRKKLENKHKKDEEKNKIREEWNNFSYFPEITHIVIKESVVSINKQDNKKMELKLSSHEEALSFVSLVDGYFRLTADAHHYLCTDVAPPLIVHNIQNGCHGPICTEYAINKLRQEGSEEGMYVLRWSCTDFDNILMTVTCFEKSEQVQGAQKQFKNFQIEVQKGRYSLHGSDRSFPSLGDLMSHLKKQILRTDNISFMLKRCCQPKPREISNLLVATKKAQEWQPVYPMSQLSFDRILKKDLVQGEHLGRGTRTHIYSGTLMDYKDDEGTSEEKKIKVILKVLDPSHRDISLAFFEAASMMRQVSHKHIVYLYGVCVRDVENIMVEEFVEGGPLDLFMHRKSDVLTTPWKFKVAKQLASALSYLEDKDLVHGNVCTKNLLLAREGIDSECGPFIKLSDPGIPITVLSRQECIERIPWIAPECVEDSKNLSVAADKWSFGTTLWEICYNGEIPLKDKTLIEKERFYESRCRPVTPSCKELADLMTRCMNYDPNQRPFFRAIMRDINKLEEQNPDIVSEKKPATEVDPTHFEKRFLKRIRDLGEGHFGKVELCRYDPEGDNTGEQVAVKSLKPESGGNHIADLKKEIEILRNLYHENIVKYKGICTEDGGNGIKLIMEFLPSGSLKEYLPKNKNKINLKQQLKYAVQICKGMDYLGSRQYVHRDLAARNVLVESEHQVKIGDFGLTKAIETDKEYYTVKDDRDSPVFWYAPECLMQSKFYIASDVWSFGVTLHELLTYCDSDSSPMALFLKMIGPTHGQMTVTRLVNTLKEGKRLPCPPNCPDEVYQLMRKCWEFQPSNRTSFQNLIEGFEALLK

In test [2] the target is JAK2 (Homo sapiens (Human), UniProt O60674). In words: JAK/TYK2 assay (Kinase Glo luminescence), JAK2. The conditions noted are these: 0.8 nM enzyme, 2 uM ATP, 4 uM pEY, 1 hr. In a few lines:
as §1

Test [3] concerns the target JAK3 (Homo sapiens (Human), UniProt P52333). The test is described as follows: JAK/TYK2 assay (Kinase Glo luminescence), JAK3. The conditions noted are these: 1.5 nM enzyme, 2 uM ATP, 4 uM pEY, 1 hr. A digest of the protocol: as §1
Test [4] has as its target TYK2 (Homo sapiens (Human), UniProt P29597). The test is described as follows: JAK/TYK2 assay (Kinase Glo luminescence), TYK2. The settings on record: 9 nM enzyme, 2 uM ATP, 30 uM IRS-1, 1 hr. In a few lines: as §1
For orientation: Kinase-Glo reads ATP consumption through a luciferase reaction.

In general, IC50 refers to the concentration that gives 50% inhibition. Read a low IC50 as greater potency.

Chain of JAK2 (O60674 whole entry, species assumed): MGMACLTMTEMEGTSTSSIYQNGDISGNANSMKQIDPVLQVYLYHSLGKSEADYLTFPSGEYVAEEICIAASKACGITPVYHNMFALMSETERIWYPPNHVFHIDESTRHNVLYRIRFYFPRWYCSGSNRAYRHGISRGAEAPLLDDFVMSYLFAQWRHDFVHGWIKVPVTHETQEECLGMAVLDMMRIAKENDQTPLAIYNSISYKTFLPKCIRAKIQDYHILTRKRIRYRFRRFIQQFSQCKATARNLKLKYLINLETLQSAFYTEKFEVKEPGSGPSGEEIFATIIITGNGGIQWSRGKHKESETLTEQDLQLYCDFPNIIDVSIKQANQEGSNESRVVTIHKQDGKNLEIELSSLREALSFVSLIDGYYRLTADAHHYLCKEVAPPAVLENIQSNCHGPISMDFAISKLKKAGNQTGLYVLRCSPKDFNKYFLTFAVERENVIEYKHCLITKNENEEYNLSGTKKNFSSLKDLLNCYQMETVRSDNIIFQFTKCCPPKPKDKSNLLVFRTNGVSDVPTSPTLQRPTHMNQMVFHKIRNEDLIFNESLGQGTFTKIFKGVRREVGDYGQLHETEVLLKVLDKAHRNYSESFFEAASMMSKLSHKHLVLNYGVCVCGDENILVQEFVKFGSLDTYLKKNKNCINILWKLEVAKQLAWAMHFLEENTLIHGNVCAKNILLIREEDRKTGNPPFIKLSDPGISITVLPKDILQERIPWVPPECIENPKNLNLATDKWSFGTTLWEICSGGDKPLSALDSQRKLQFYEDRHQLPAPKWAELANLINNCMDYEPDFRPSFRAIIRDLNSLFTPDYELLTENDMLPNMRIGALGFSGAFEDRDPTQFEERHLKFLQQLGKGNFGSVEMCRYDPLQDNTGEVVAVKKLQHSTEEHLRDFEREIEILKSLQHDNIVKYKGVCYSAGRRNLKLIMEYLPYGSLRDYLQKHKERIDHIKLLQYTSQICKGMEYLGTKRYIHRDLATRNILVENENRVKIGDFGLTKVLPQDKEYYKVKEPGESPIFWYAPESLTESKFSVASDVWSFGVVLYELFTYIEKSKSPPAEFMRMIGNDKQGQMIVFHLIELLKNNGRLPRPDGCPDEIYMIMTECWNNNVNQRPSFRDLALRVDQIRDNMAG
Chain of TYK2 (P29597 whole entry, species assumed): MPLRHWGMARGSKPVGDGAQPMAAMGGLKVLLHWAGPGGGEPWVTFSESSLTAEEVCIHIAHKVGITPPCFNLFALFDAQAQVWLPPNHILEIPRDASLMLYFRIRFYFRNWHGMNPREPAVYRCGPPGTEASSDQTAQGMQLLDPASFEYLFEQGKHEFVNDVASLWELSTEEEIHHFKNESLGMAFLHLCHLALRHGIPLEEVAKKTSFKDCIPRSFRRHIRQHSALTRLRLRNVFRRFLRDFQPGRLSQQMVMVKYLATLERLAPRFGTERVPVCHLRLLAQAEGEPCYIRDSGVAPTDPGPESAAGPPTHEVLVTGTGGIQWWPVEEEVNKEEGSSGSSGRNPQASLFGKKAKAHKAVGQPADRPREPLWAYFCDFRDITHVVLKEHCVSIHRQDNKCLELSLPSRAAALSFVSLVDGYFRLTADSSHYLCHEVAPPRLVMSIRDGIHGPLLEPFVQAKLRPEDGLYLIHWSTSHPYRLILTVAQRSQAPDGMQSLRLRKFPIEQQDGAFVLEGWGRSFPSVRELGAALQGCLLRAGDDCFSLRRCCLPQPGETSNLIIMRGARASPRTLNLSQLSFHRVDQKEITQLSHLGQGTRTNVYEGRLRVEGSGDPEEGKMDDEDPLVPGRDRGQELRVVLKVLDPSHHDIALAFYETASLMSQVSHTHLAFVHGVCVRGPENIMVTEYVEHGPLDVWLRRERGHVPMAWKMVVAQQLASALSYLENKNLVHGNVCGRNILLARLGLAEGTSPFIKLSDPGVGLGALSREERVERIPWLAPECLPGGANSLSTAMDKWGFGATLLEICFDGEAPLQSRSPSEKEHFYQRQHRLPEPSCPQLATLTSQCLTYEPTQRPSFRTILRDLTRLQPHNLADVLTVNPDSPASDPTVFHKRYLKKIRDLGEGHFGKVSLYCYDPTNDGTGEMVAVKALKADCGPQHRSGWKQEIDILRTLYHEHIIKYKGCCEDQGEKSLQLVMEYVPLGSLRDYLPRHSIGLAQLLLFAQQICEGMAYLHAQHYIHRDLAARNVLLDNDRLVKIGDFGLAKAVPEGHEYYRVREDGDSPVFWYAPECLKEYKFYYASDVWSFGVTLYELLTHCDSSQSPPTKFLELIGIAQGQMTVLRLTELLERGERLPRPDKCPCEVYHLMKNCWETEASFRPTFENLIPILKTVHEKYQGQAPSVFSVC
Chain of JAK3 (P52333 whole entry, species assumed): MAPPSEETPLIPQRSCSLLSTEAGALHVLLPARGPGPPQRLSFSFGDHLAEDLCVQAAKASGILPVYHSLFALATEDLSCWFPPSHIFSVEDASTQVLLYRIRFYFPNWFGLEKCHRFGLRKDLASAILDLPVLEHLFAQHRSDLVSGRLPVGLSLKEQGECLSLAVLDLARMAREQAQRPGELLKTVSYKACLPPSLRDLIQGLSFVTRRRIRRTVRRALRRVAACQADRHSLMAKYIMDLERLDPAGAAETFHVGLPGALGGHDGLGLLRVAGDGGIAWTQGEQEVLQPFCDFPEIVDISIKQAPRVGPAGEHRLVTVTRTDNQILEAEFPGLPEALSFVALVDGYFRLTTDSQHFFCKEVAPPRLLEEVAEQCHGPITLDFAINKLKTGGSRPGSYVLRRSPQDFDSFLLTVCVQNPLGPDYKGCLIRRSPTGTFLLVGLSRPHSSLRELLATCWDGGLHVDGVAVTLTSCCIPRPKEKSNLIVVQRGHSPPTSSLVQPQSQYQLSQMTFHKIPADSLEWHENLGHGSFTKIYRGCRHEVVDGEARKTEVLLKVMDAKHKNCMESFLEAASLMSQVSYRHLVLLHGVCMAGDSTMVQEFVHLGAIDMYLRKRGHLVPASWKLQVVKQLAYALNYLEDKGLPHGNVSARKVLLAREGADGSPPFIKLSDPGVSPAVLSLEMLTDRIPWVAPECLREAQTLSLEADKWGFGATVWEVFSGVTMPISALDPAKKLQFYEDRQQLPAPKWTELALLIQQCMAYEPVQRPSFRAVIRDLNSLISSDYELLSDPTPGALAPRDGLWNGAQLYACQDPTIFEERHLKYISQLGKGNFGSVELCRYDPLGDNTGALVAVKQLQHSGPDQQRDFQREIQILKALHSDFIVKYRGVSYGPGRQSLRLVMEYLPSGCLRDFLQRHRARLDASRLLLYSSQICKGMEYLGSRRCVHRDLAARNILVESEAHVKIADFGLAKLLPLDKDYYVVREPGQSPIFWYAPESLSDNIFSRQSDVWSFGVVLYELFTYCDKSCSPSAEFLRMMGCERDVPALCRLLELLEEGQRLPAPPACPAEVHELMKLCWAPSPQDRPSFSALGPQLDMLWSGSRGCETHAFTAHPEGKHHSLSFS

Take `CC[C@H](Cn1ccc2cnc(Nc3cnn(C(CCO)C(=O)O)c3)nc21)C(C)C` (stereo partly drawn) [Compound 136, 2-(4-((7-((S)-2-ethyl-3-methylbutyl)-7H-pyrrolo[2,3-d]pyrimidin-2-yl)amino)-1H-pyrazol-1-yl)-4-hydroxybutanoic acid]: the half-maximal inhibitory concentration (IC50) in test [1], in test [2], in test [3] and in test [4] was less than 100 nM in each case.

As for `CCOC(=O)Cn1cc(Nc2ncc3ccn(CC4CCCCCC4)c3n2)cn1` [Compound 43, ethyl 2-(4-((7-(cycloheptylmethyl)-7H-pyrrolo[2,3-d]pyrimidin-2-yl)amino)-1H-pyrazol-1-yl)acetate], the 50% inhibitory concentration (IC50) is 100 to 1000 nM in test [1], less than 100 nM in test [2], less than 100 nM in test [3] and less than 100 nM in test [4].

Consider `CCOC(=O)Cn1cc(Nc2ncc3ccn(CC(CC)CC)c3n2)cn1` [Compound 8, ethyl 2-(4-((7-(2-ethylbutyl)-7H-pyrrolo[2,3-d]pyrimidin-2-yl)amino)-1H-pyrazol-1-yl)acetate], for which the IC50 in test [1], in test [2], in test [3] and in test [4] was less than 100 nM in each case.

For the compound `CCOC(=O)Cn1cc(Nc2ncc3ccn(CC4CCCC(C)C4)c3n2)cn1` (stereo not shown) [Compound 45, ethyl 2-(4-((7-((3-methylcyclohexyl)methyl)-7H-pyrrolo[2,3-d]pyrimidin-2-yl)amino)-1H-pyrazol-1-yl)acetate], the IC50 in test [1], in test [2], in test [3] and in test [4] was less than 100 nM each time.

Consider `CC(C)OC(=O)Cn1cc(Nc2ncc3ccn(C[C@@H](CCO)C(C)C)c3n2)cn1` [Compound 97, isopropyl (S)-2-(4-((7-(4-hydroxy-2-isopropylbutyl)-7H-pyrrolo[2,3-d]pyrimidin-2-yl)amino)-1H-pyrazol-1-yl)acetate], for which the concentration for half-maximal inhibition (IC50) in test [1], in test [2], in test [3] and in test [4] was less than 100 nM throughout.

As to `CC(C)OC(=O)Cn1cc(Nc2ncc3ccn(C[C@@H](CCCl)C(C)C)c3n2)cn1` [Compound 98, isopropyl (S)-2-(4-((7-(4-chloro-2-isopropylbutyl)-7H-pyrrolo[2,3-d]pyrimidin-2-yl)amino)-1H-pyrazol-1-yl)acetate], the half-inhibitory concentration (IC50) in test [1], in test [2], in test [3] and in test [4] was less than 100 nM in each case.

Turning to `O=C(O)Cn1cc(Nc2ncc3ccn(Cc4ccsc4)c3n2)cn1` [Compound 11, 2-(4-((7-(thiophen-3-ylmethyl)-7H-pyrrolo[2,3-d]pyrimidin-2-yl)amino)-1H-pyrazol-1-yl)acetic acid], the concentration for half-maximal inhibition (IC50) in test [1] is 100 to 1000 nM; in test [2], less than 100 nM; in test [3] it was less than 100 nM; in test [4] it was less than 100 nM.

As to `CCOC(=O)Cn1cc(Nc2ncc3ccn(CC(C)(C)C)c3n2)cn1` [Compound 20, ethyl 2-(4-((7-neopentyl-7H-pyrrolo[2,3-d]pyrimidin-2-yl)amino)-1H-pyrazol-1-yl)acetate], the IC50 in test [1] was 100 to 1000 nM; in test [2] it was 100 to 1000 nM; in test [3], less than 100 nM; in test [4], less than 100 nM.

Turning to `CC[C@H](Cn1ccc2cnc(Nc3cnn(CC(=O)O[C@H]4CCN(C)C4)c3)nc21)C(C)C` [Compound 138, (S)-1-methylpyrrolidin-3-yl 2-(4-((7-((S)-2-ethyl-3-methylbutyl)-7H-pyrrolo[2,3-d]pyrimidin-2-yl)amino)-1H-pyrazol-1-yl)acetate], the IC50 in test [1], in test [2], in test [3] and in test [4] was less than 100 nM in each case.

As for `CCOC(=O)Cn1cc(Nc2ncc3ccn(CC4CCCC(F)(F)C4)c3n2)cn1` (stereo not shown) [Compound 36, ethyl 2-(4-((7-((3,3-difluorocyclohexyl)methyl)-7H-pyrrolo[2,3-d]pyrimidin-2-yl)amino)-1H-pyrazol-1-yl)acetate], the IC50 in test [1], in test [2], in test [3] and in test [4] was less than 100 nM throughout.
